Patent US9617256B2 (priority 2007, dated 2017)
≈ marks a conversion by molar mass, not a printed value.

How the values were obtained:
[1] = system: APAE006 in the presence of 8 micrograms per milliliter of polymyxin B nonapeptide; assay type: cell-based, P. aeruginosa; conditions: in the presence of 8 micrograms per milliliter of polymyxin B nonapeptide
Outline: (§1)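 Broth microdilution (CLSI); CA-MHB; 3×10^5–7×10^5 CFU/mL final; 2-fold dilutions; 35° C., ambient air, 18-24 h. APAE006 lacks all active efflux pumps.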

AECO001 (ATCC25922) = test: MIC broth microdilution, AECO001; assay type: cell-based, E. coli; conditions: Escherichia coli, ATCC25922, read-out: MIC AECO001
Outline: (§2)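 Minimum inhibitory concentrations followed CLSI broth microdilution guidelines: cation-adjusted Mueller-Hinton broth, 2-fold serial drug dilutions, final inoculum 3×10^5–7×10^5 CFU/mL, ambient air at 35° C. for 18-24 hours. Quality-control strains and levofloxacin monitored performance.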

[2] = system: APAE006 (strain of P. aeruginosa in which all efflux pumps are inactivated); test: microbe, parasite or virus in culture; assay type: cell-based; conditions: Pseudomonas aeruginosa, read-out: MIC APAE006, P. aeruginosa, all efflux pumps inactivated
Outline: as §1

[3] = system: ASAU001 (laboratory strain of S. aureus, ATCC29213); test: MIC broth microdilution, ASAU001; assay type: cell-based; conditions: Staphylococcus aureus, ATCC29213, read-out: MIC ASAU001
Outline: as §2

[4] = system: AECO063 (ATCC25922 bearing an acrAB mutation); test: microbe, parasite or virus in culture; assay type: cell-based, E. coli; conditions: Escherichia coli, ATCC25922, read-out: MIC AECO063
Outline: as §2

APAE001 (ATCC27853) = test: MIC broth microdilution, APAE001; assay type: cell-based, P. aeruginosa; conditions: Pseudomonas aeruginosa, ATCC27853, read-out: MIC APAE001, APAE001 is ATCC27853
Outline: as §2

[5] = system: AABA1060 (clinical isolate of Acinetobacter baumannii); test: MIC broth microdilution, AABA1060; assay type: cell-based; conditions: Acinetobacter baumannii, read-out: MIC AABA1060
Outline: as §2

AECO001 HSA AGP = test: MIC broth microdilution, AECO001 HSA AGP; assay type: cell-based, E. coli; conditions: Escherichia coli
Outline: as §2

SMILES | MIC APAE006 + PMBN [1] | MIC (AECO001 (ATCC25922)) | MIC [2] | MIC [3] | MIC [4] | MIC (APAE001 (ATCC27853)) | MIC [5] | MIC (AECO001 HSA AGP)
C[C@@H](N)[C@H](NC(=O)c1ccc(C#CC#Cc2ccncc2)cc1)C(=O)NO [Example 88-2] | A (MIC's of 2.0 μg/mL or less = A) | < 2 µg/mL | < 2 µg/mL | 2 to 16 µg/mL (≈ 5.52 to 44.2 µM) | < 2 µg/mL | < 2 µg/mL | 2 to 16 µg/mL (≈ 5.52 to 44.2 µM) | 2 to 16 µg/mL (≈ 5.52 to 44.2 µM)
C[C@@H](N)[C@H](NC(=O)c1ccc(C#Cc2ccc(CNS(C)(=O)=O)cc2)cc1)C(=O)NO [Example 131-2] | A (MIC's of 2.0 μg/mL or less = A) | 2 to 16 µg/mL (≈ 4.5 to 36 µM) | < 2 µg/mL | > 64 µg/mL | < 2 µg/mL | < 2 µg/mL | 16 to 64 µg/mL (≈ 36 to 144 µM) | 16 to 64 µg/mL (≈ 36 to 144 µM)
C[C@@H](N)[C@H](NC(=O)c1ccc(C#Cc2ccc(CNC3CCC3)cc2)cc1)C(=O)NO [Example 119-2] | A (MIC's of 2.0 μg/mL or less = A) | 2 to 16 µg/mL (≈ 4.76 to 38 µM) | < 2 µg/mL | > 64 µg/mL | 2 to 16 µg/mL (≈ 4.76 to 38 µM) | < 2 µg/mL | > 64 µg/mL | 16 to 64 µg/mL (≈ 38 to 152 µM)
C[C@@H](O)[C@H](NC(=O)c1ccc(C#C/C=C/c2ccc(CO)cc2)cc1)C(=O)NO [Example 101-1, N-((1S,2R)-2-Hydroxy-1-hydroxycarbamoyl-propyl)-4-[(E)-4-(4-hydroxymethyl-phenyl)-but-3-en-1-ynyl]-benzamide] | A (MIC's of 2.0 μg/mL or less = A) | < 2 µg/mL | < 2 µg/mL | 16 to 64 µg/mL (≈ 40.6 to 162 µM) | < 2 µg/mL | 2 to 16 µg/mL (≈ 5.07 to 40.6 µM) | 16 to 64 µg/mL (≈ 40.6 to 162 µM) | 2 to 16 µg/mL (≈ 5.07 to 40.6 µM)
NC[C@H](NC(=O)c1ccc(/C=C/C#Cc2ccc(CO)cc2)cc1)C(=O)NO [Example 112-2] | A (MIC's of 2.0 μg/mL or less = A) | 2 to 16 µg/mL (≈ 5.27 to 42.2 µM) | < 2 µg/mL | > 64 µg/mL | < 2 µg/mL | 2 to 16 µg/mL (≈ 5.27 to 42.2 µM) | > 64 µg/mL | 16 to 64 µg/mL (≈ 42.2 to 169 µM)
C[C@H](N)[C@H](NC(=O)c1ccc(C#Cc2ccccc2)cc1)C(=O)NO [Example 133-1, N-((1S,2S)-2-Amino-1-hydroxycarbamoyl-propyl)-4-phenylethynyl-benzamide] | A (MIC's of 2.0 μg/mL or less = A) | < 2 µg/mL | < 2 µg/mL | 16 to 64 µg/mL (≈ 47.4 to 190 µM) | < 2 µg/mL | < 2 µg/mL | < 2 µg/mL | 2 to 16 µg/mL (≈ 5.93 to 47.4 µM)
NC[C@H](NC(=O)c1ccc(C#C/C=C/c2ccc(CO)cc2)cc1)C(=O)NO [Example 101-2] | A (MIC's of 2.0 μg/mL or less = A) | < 2 µg/mL | < 2 µg/mL | 16 to 64 µg/mL (≈ 42.2 to 169 µM) | < 2 µg/mL | 2 to 16 µg/mL (≈ 5.27 to 42.2 µM) | 16 to 64 µg/mL (≈ 42.2 to 169 µM) | 16 to 64 µg/mL (≈ 42.2 to 169 µM)
C[C@@H](N)[C@H](NC(=O)c1ccc(C#C/C=C/c2ccccc2)cc1)C(=O)NO [Example 104-4] | A (MIC's of 2.0 μg/mL or less = A) | < 2 µg/mL | < 2 µg/mL | 16 to 64 µg/mL (≈ 44 to 176 µM) | < 2 µg/mL | < 2 µg/mL | 2 to 16 µg/mL (≈ 5.5 to 44 µM) | 2 to 16 µg/mL (≈ 5.5 to 44 µM)
CNC(=O)[C@@H](NC(=O)c1ccc(C#Cc2ccc(CN3CCOCC3)cc2)cc1)[C@@H](C)N [Example 117-1, N-((1S,2R)-2-Amino-1-methylcarbamoyl-propyl)-4-(4-morpholin-4-ylmethyl-phenylethynyl)-benzamide] | D (MIC's of greater than 64.0 μg/mL = D) | > 64 µg/mL | > 64 µg/mL | > 64 µg/mL | > 64 µg/mL | > 64 µg/mL | > 64 µg/mL | > 64 µg/mL
COCc1ccc(C#C/C=C/c2ccc(C(=O)N[C@H](C(=O)NO)[C@@H](C)N)cc2)cc1 [Example 113-9] | A (MIC's of 2.0 μg/mL or less = A) | < 2 µg/mL | < 2 µg/mL | 16 to 64 µg/mL (≈ 39.3 to 157 µM) | < 2 µg/mL | < 2 µg/mL | < 2 µg/mL | 2 to 16 µg/mL (≈ 4.91 to 39.3 µM)
C[C@H](NCC(=O)NC[C@H](NC(=O)c1ccc(C#Cc2ccccc2)cc1)C(=O)NO)c1ccccc1 [Example 132-4] | A (MIC's of 2.0 μg/mL or less = A) | < 2 µg/mL | < 2 µg/mL | 16 to 64 µg/mL (≈ 33 to 132 µM) | < 2 µg/mL | 2 to 16 µg/mL (≈ 4.13 to 33 µM) | 2 to 16 µg/mL (≈ 4.13 to 33 µM) | 2 to 16 µg/mL (≈ 4.13 to 33 µM)
C[C@@H](N)[C@H](NC(=O)c1ccc(/C=C/C#Cc2ccc(F)cc2)cc1)C(=O)NO [Example 114-2] | A (MIC's of 2.0 μg/mL or less = A) | < 2 µg/mL | < 2 µg/mL | 16 to 64 µg/mL (≈ 41.9 to 168 µM) | < 2 µg/mL | 2 to 16 µg/mL (≈ 5.24 to 41.9 µM) | 2 to 16 µg/mL (≈ 5.24 to 41.9 µM) | 2 to 16 µg/mL (≈ 5.24 to 41.9 µM)
C[C@@H](N)[C@H](NC(=O)c1ccc(C#CC#Cc2ccccn2)cc1)C(=O)NO [Example 88-4] | A (MIC's of 2.0 μg/mL or less = A) | 2 to 16 µg/mL (≈ 5.52 to 44.2 µM) | < 2 µg/mL | > 64 µg/mL | < 2 µg/mL | < 2 µg/mL | 16 to 64 µg/mL (≈ 44.2 to 177 µM) | 16 to 64 µg/mL (≈ 44.2 to 177 µM)
C[C@H](O)[C@H](NC(=O)c1ccc(C#C/C=C/c2ccc(CO)cc2)cc1)C(=O)NO [Example 101-4] | A (MIC's of 2.0 μg/mL or less = A) | < 2 µg/mL | < 2 µg/mL | 16 to 64 µg/mL (≈ 40.6 to 162 µM) | < 2 µg/mL | 2 to 16 µg/mL (≈ 5.07 to 40.6 µM) | 16 to 64 µg/mL (≈ 40.6 to 162 µM) | 2 to 16 µg/mL (≈ 5.07 to 40.6 µM)
CO[C@H](C)[C@H](NC(=O)c1ccc(/C=C/C#Cc2ccc(CO)cc2)cc1)C(=O)NO [Example 112-4] | A (MIC's of 2.0 μg/mL or less = A) | < 2 µg/mL | < 2 µg/mL | 16 to 64 µg/mL (≈ 39.2 to 157 µM) | < 2 µg/mL | < 2 µg/mL | < 2 µg/mL | 2 to 16 µg/mL (≈ 4.9 to 39.2 µM)
C[C@@H](N)[C@H](NC(=O)c1ccc(C#Cc2ccc(CN3CCc4[nH]ncc4C3)cc2)cc1)C(=O)NO [Example 118-2] | A (MIC's of 2.0 μg/mL or less = A) | < 2 µg/mL | < 2 µg/mL | 16 to 64 µg/mL (≈ 33.9 to 135 µM) | < 2 µg/mL | < 2 µg/mL | 2 to 16 µg/mL (≈ 4.23 to 33.9 µM) | 16 to 64 µg/mL (≈ 33.9 to 135 µM)
C[C@@H](N)[C@H](NC(=O)c1ccc(C#Cc2ccc(CNC3CC3)cc2)cc1)C(=O)NO [Example 115-2] | A (MIC's of 2.0 μg/mL or less = A) | < 2 µg/mL | < 2 µg/mL | > 64 µg/mL | < 2 µg/mL | < 2 µg/mL | 2 to 16 µg/mL (≈ 4.92 to 39.4 µM) | 2 to 16 µg/mL (≈ 4.92 to 39.4 µM)
O=C(NC(C(=O)NO)C1CCNC1)c1ccc(C#Cc2ccc(CN3CCOCC3)cc2)cc1 (stereo not drawn) [Example 64-7, N-(hydroxycarbamoyl-pyrrolidin-3-yl-methyl)-4-(4-morpholin-4-ylmethyl-phenylethynyl)-benzamide] | A (MIC's of 2.0 μg/mL or less = A) | 2 to 16 µg/mL (≈ 4.32 to 34.6 µM) | < 2 µg/mL | > 64 µg/mL | < 2 µg/mL | 2 to 16 µg/mL (≈ 4.32 to 34.6 µM) | 16 to 64 µg/mL (≈ 34.6 to 138 µM) | 16 to 64 µg/mL (≈ 34.6 to 138 µM)
